Measured values reported in article PMC7265341, “Quantifying CDK inhibitor selectivity in live cells” (Nature Communications, 2020).
Read-outs that look alike come from different tables or passages of the source.

How the values were obtained:
CDK5/CDK5R1 = CDK5/CDK5R1 (Homo sapiens, UniProt Q00535); assay: NanoBRET live-cell target engagement, CDK5-NanoLuc/CDK5R1 in HEK-293; type: binding; conditions: CDK5/CDK5R1, read-out: Inhibition at 10µM (%)
CDK15/Cyclin Y = CDK15/Cyclin Y (Homo sapiens, UniProt Q96Q40); assay: NanoBRET live-cell target engagement, NanoLuc-CDK15/Cyclin Y in HEK-293; type: binding; conditions: read-out: Inhibition at 10µM (%), CDK15/Y
CDK11A/Cyclin L2 = biological target: T1, CDK11A/Cyclin L2 (Homo sapiens, UniProt Q9UQ88); assay: NanoBRET live-cell target engagement, CDK11A-NanoLuc/Cyclin L2 in HEK-293; type: binding; conditions: read-out: Inhibition at 10µM (%), CDK11a/L2
T1 sequence (Q9UQ88 1-783): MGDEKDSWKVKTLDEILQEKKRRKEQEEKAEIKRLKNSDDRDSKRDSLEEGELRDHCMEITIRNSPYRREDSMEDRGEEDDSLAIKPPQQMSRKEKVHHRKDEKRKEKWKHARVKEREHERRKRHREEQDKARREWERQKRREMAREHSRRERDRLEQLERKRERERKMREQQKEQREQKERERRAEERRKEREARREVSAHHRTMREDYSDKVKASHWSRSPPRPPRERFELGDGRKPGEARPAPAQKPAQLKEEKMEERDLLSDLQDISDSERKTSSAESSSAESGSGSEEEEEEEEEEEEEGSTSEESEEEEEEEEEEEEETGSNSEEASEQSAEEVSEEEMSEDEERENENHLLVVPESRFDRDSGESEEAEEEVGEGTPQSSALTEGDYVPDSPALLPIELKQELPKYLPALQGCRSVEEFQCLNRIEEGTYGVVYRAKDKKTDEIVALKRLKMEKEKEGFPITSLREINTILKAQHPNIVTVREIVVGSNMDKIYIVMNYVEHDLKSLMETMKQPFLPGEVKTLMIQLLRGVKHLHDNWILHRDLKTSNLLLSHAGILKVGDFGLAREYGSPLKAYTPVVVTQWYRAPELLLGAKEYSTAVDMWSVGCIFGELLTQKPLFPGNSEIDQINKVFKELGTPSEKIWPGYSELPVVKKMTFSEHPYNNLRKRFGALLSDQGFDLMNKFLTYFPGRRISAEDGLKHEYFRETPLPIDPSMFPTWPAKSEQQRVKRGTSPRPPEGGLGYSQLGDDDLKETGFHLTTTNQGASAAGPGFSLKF

CDK3/Cyclin E1 = CDK3/Cyclin E1 (Homo sapiens, UniProt Q00526); assay: NanoBRET live-cell target engagement, CDK3-NanoLuc/Cyclin E1 in HEK-293; type: binding; conditions: CDK3/E1, read-out: Inhibition at 10µM (%)
CDK3/Cyclin E1, sequence (Q00526 whole entry): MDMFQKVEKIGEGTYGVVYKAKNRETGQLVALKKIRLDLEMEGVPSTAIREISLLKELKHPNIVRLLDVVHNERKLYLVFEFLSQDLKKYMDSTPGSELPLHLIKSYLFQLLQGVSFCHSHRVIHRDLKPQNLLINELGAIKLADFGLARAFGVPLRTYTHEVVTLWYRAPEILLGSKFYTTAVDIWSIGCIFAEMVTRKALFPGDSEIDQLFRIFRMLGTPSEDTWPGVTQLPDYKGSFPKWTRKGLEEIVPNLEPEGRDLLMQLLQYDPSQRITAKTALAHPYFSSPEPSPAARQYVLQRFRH
CDK3/Cyclin E1, sequence (P24864 whole entry partner): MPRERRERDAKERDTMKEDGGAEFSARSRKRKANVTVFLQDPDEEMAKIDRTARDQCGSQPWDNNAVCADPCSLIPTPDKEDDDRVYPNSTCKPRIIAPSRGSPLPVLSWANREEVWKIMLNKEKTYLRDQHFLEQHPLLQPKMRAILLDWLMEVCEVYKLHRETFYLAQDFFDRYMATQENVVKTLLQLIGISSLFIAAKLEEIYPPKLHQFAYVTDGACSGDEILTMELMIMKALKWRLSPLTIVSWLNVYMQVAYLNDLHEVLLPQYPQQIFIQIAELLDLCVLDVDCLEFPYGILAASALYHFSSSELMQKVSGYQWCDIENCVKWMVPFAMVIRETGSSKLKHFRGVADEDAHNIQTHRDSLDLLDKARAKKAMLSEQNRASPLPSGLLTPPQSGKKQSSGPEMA

CDK12/Cyclin K = CDK12/Cyclin K (Homo sapiens, UniProt Q9NYV4); assay: NanoBRET live-cell target engagement, CDK12-NanoLuc/Cyclin K in HEK-293; type: binding; conditions: read-out: Inhibition at 10µM (%), CDK12/K
CDK19/Cyclin C = CDK19/Cyclin C (Homo sapiens, UniProt Q9BWU1); assay: NanoBRET live-cell target engagement, NanoLuc-CDK19/Cyclin C in HEK-293; conditions: for IC50: CDK19/C; for inhibition at 10 µM: read-out: Inhibition at 10µM (%), CDK19/C
CDK4/Cyclin D1 = CDK4/Cyclin D1 (Homo sapiens, UniProt P11802); assay: NanoBRET live-cell target engagement, NanoLuc-CDK4/Cyclin D1 in HEK-293; type: binding; conditions: CDK4/D1, read-out: Inhibition at 10µM (%)
CDK4/Cyclin D1, sequence (P11802 whole entry): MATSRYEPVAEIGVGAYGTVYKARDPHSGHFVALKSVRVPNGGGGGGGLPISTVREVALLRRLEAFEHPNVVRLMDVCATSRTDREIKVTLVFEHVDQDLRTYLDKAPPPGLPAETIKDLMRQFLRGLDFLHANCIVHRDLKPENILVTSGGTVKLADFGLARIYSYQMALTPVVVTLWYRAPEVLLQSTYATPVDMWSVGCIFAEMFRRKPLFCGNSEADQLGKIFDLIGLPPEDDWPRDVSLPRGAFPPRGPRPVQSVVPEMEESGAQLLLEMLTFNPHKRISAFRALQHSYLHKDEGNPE
CDK4/Cyclin D1, sequence (P24385 whole entry partner): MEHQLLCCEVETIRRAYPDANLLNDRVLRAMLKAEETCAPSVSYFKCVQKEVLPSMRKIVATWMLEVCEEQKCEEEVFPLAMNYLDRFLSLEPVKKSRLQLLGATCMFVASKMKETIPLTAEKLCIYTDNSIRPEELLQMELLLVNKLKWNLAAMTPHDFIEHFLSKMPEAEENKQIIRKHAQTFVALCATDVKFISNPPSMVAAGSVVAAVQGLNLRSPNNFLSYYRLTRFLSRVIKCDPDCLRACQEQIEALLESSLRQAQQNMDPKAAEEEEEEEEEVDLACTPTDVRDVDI

CDK13/Cyclin K = CDK13/Cyclin K (Homo sapiens, UniProt Q14004); assay: NanoBRET live-cell target engagement, CDK13-NanoLuc/Cyclin K in HEK-293; type: binding; conditions: CDK13/K, read-out: Inhibition at 10µM (%)
CDK13/Cyclin K, sequence (O75909 whole entry): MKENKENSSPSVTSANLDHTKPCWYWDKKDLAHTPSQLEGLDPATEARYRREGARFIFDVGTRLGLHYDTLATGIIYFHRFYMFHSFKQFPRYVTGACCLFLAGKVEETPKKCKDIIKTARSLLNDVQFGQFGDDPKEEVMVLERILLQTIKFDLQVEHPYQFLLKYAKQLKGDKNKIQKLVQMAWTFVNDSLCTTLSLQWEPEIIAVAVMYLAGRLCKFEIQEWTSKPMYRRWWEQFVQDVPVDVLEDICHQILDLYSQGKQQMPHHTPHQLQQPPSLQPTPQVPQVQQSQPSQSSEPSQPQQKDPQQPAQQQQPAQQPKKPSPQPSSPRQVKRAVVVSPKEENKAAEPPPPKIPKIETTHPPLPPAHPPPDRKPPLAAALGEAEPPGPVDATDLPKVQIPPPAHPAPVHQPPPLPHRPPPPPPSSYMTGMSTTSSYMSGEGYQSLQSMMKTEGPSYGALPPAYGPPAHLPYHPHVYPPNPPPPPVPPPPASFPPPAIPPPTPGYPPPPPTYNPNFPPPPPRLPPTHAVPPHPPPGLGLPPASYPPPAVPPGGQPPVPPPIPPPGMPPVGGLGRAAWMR
CDK13/Cyclin K, sequence (Q14004 other isoform, or with tags, fused parts or gaps): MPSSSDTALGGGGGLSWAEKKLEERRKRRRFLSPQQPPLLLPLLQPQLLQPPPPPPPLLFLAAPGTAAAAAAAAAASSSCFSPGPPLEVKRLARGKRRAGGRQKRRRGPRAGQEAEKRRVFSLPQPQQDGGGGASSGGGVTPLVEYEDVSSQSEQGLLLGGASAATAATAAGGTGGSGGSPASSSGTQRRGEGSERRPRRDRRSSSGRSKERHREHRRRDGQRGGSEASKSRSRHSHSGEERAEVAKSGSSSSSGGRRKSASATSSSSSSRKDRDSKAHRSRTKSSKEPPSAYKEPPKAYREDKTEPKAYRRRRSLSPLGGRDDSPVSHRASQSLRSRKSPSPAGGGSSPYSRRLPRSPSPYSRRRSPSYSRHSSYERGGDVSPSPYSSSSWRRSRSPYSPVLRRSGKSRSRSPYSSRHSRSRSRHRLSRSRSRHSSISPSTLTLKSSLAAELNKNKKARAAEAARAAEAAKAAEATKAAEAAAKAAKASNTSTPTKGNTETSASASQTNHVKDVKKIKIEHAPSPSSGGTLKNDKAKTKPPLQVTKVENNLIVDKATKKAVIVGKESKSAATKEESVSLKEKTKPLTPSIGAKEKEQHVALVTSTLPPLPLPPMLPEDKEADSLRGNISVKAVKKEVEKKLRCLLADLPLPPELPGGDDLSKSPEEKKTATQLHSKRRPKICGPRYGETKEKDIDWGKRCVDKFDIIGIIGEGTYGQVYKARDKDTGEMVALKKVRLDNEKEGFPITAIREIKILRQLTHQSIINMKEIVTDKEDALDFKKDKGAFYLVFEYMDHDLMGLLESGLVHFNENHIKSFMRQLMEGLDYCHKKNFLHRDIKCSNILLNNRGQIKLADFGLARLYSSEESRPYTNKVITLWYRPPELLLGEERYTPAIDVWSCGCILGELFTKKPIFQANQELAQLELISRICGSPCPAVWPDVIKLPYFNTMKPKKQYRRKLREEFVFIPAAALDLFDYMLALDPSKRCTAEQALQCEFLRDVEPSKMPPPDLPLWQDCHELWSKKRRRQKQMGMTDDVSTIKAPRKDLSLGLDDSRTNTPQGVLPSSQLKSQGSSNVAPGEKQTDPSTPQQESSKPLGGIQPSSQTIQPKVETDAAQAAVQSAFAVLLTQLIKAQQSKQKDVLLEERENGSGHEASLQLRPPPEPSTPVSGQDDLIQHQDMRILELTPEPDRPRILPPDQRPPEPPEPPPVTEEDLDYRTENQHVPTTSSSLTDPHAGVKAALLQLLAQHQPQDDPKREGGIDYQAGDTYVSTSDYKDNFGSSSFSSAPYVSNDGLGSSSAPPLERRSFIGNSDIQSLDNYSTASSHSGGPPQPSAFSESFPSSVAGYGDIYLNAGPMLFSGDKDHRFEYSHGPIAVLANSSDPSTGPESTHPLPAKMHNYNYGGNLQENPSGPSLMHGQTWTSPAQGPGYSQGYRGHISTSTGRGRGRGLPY

CDK11B/Cyclin L2 = CDK11B/Cyclin L2 (Homo sapiens, UniProt P21127); assay: NanoBRET live-cell target engagement, CDK11B-NanoLuc/Cyclin L2 in HEK-293; type: binding; conditions: read-out: Inhibition at 10µM (%), CDK11b/L2
CDK11B/Cyclin L2, sequence (P21127 1-782 isoform P21127-2): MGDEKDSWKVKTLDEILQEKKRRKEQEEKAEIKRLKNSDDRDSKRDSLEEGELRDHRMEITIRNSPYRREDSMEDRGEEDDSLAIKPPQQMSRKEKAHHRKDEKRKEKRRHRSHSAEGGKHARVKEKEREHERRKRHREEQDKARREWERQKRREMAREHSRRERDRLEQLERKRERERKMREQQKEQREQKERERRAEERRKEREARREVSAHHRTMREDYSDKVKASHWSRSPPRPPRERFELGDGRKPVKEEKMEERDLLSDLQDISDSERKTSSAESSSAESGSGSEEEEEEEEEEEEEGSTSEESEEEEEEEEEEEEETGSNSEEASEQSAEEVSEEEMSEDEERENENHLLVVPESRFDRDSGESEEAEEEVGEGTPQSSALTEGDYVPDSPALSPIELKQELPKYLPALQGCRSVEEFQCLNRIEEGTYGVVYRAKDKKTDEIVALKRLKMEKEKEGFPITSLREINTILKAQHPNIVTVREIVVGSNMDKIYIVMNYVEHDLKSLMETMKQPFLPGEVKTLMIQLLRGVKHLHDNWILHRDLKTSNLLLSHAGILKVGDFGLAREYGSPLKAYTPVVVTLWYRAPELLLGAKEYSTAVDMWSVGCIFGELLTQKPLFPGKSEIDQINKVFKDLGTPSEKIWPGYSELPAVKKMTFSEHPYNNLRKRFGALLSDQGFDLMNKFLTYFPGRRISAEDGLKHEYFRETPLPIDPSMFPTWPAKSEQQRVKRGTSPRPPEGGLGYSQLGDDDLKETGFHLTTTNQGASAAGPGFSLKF

CDK18/Cyclin Y = CDK18/Cyclin Y (Homo sapiens, UniProt Q07002); assay: NanoBRET live-cell target engagement, CDK18-NanoLuc/Cyclin Y in HEK-293; type: binding; conditions: read-out: Inhibition at 10µM (%), CDK18/Y
CDK17/Cyclin Y = CDK17/Cyclin Y (Homo sapiens, UniProt Q00537); assay: NanoBRET live-cell target engagement, CDK17-NanoLuc/Cyclin Y in HEK-293; type: binding; conditions: read-out: Inhibition at 10µM (%), CDK17/Y

CDK5/CDK5R1, sequence (Q00535 whole entry): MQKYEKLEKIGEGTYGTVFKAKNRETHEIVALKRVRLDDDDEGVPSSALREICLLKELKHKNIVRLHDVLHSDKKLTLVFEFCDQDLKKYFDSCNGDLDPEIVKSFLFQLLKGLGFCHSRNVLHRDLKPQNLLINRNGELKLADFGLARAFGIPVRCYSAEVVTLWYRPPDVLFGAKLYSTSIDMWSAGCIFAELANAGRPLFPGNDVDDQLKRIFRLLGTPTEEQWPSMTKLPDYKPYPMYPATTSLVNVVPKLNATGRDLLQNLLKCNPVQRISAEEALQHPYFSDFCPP
CDK5/CDK5R1, sequence (Q15078 whole entry partner): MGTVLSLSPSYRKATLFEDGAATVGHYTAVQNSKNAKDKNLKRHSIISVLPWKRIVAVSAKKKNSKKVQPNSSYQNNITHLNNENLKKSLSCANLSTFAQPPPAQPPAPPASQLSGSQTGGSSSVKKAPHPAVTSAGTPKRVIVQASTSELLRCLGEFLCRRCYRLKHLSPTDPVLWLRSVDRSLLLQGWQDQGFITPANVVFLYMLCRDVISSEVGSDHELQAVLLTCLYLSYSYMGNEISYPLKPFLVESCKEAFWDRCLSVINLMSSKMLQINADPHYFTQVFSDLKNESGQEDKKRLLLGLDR

SMILES: COC1CN(C(=O)c2ccc3c(N)ncc(-c4ccc(-c5cnn(C)c5)cc4)c3n2)C1 [CCT251545 analog]
- inhibition at 10 µM (CDK5/CDK5R1; average): 16.2%
- inhibition at 10 µM (CDK5/CDK5R1; experiment 1): 17.8%
- inhibition at 10 µM (CDK5/CDK5R1; experiment 2): 14.5%
- inhibition at 10 µM (CDK15/Cyclin Y; average): -9.7%
- inhibition at 10 µM (CDK15/Cyclin Y; experiment 1): -3.1%
- inhibition at 10 µM (CDK15/Cyclin Y; experiment 2): -16.3%
- inhibition at 10 µM (CDK11A/Cyclin L2; average): 0.8%
- inhibition at 10 µM (CDK11A/Cyclin L2; experiment 1): -1%
- inhibition at 10 µM (CDK11A/Cyclin L2; experiment 2): 2.6%
- inhibition at 10 µM (CDK3/Cyclin E1; average): 0.5%
- inhibition at 10 µM (CDK3/Cyclin E1; experiment 1): 3.3%
- inhibition at 10 µM (CDK3/Cyclin E1; experiment 2): -2.3%
- inhibition at 10 µM (CDK12/Cyclin K; average): 1.9%
- inhibition at 10 µM (CDK12/Cyclin K; experiment 1): 5.9%
- inhibition at 10 µM (CDK12/Cyclin K; experiment 2): -2.2%
- IC50 (CDK19/Cyclin C; IC50 (nM), experiment 1): 9 nM
- IC50 (CDK19/Cyclin C; IC50 (nM), experiment 2): 3 nM
- IC50 (CDK19/Cyclin C; IC50 (nM), experiment 3): 17 nM
- IC50 (CDK19/Cyclin C; IC50 for CDK/cyclin complexes, live HEK-293, 2 h, mean ± S.E.M. (n=3) or mean (n=2)): 10 nM
- CDK19 occupancy (%) (CDK19/Cyclin C; LOG10([CCT251545 analog]) (LOG10(µM)) 0.045757): 84.8277%
- CDK19 occupancy (%) (CDK19/Cyclin C; LOG10([CCT251545 analog]) (LOG10(µM)) 0.522879): 83.6158%
- CDK19 occupancy (%) (CDK19/Cyclin C; LOG10([CCT251545 analog]) (LOG10(µM)) 1): 72.7094%
- CDK19 occupancy (%) (CDK19/Cyclin C; LOG10([CCT251545 analog]) (LOG10(µM)) -0.43136): 89.9173%
- CDK19 occupancy (%) (CDK19/Cyclin C; LOG10([CCT251545 analog]) (LOG10(µM)) -0.90849): 87.736%
- CDK19 occupancy (%) (CDK19/Cyclin C; LOG10([CCT251545 analog]) (LOG10(µM)) -1.38561): 82.404%
- CDK19 occupancy (%) (CDK19/Cyclin C; LOG10([CCT251545 analog]) (LOG10(µM)) -1.86273): 73.4365%
- CDK19 occupancy (%) (CDK19/Cyclin C; LOG10([CCT251545 analog]) (LOG10(µM)) -2.33985): 46.7764%
- CDK19 occupancy (%) (CDK19/Cyclin C; LOG10([CCT251545 analog]) (LOG10(µM)) -2.81697): 31.7498%
- CDK19 occupancy (%) (CDK19/Cyclin C; LOG10([CCT251545 analog]) (LOG10(µM)) -3.29409): 15.7537%
- CDK19 occupancy (%) (CDK19/Cyclin C; LOG10([CCT251545 analog]) (LOG10(µM)) -3.77121): 2.424%
- inhibition at 10 µM (CDK19/Cyclin C; average): 92.3%
- inhibition at 10 µM (CDK19/Cyclin C; experiment 1): 93.4%
- inhibition at 10 µM (CDK19/Cyclin C; experiment 2): 91.3%
- inhibition at 10 µM (CDK4/Cyclin D1; average): 12.4%
- inhibition at 10 µM (CDK4/Cyclin D1; experiment 1): 11.6%
- inhibition at 10 µM (CDK4/Cyclin D1; experiment 2): 13.1%
- inhibition at 10 µM (CDK13/Cyclin K; average): 6.6%
- inhibition at 10 µM (CDK13/Cyclin K; experiment 1): 6.4%
- inhibition at 10 µM (CDK13/Cyclin K; experiment 2): 6.7%
- inhibition at 10 µM (CDK11B/Cyclin L2; average): 0.563%
- inhibition at 10 µM (CDK11B/Cyclin L2; experiment 1): 2.1%
- inhibition at 10 µM (CDK11B/Cyclin L2; experiment 2): -1%
- inhibition at 10 µM (CDK18/Cyclin Y; average): 0.4%
- inhibition at 10 µM (CDK18/Cyclin Y; experiment 1): -7.3%
- inhibition at 10 µM (CDK18/Cyclin Y; experiment 2): 8.1%
- inhibition at 10 µM (CDK17/Cyclin Y; average): 11.3%
- inhibition at 10 µM (CDK17/Cyclin Y; experiment 1): 8.9%
- inhibition at 10 µM (CDK17/Cyclin Y; experiment 2): 13.7%
